# Measured values reported in patent US20210069295A1, “GALECTINS CONTROL MTOR IN RESPONSE TO ENDOMEMBRANE DAMAGE AND PROVIDE A MECHANISM AND TARGET FOR THE TREATMENT OF AUTOPHAGY-RELATED DISEASES” (STC. UNM, priority 2017, published 2021).
# Peptide text beside a SMILES is read from it.
# System: mTOR
# Assay: mTOR activity by immunoblotting in HeLa cells (wildtype and TSC2-deleted)
# Type: cell-based
# Details: 100 μM GPN 1 h
# Method: (A) Analysis of mTOR activity in TSC2-deleted (TSC2−/−) and wildtype (TSC2WT) HeLa cells treated with 100 μM GPN in full medium (Full) or starved in EBSS for 1 h. mTOR activity was monitored by immunoblotting analysis of S6K1 (T389) phosphorylation (phosphorylated S6K (p-T389) relative to total S6K). Ctrl, control (untreated cells). (B) Co-immunoprecipitation analysis of changes in interactions between Ragulator and Rag GTPases following treatment with GPN. HEK293T cells stably expressing FLAG-metap2 (control) or FLAG-p14 were treated with 100 μM GPN in full medium for 1 h. Cell lysates were immunoprecipitated (IP) with anti-FLAG antibody and immunoblotted for endogenous RagA or RagC. […] (D) Analysis of mTOR activity in HEK293T cells or HEK293T cells stably expressing constitutively active RagB GTPase (RagBQ99L) treated with 100 μM GPN in full medium or starved in EBSS for 1 h. mTOR activity was monitored as in A. Data, means±SEM, (n=3), † not significant, **p<0.01, ANOVA. […] (F) Quantification by HC of overlaps between mTOR and LAMP2 (representative images shown in FIG. S2C) in HEK293T cells and HEK293T cells stably expressing constitutively active RagB GTPase (RagBQ99L) treated with 100 μM GPN in full medium for 1 h. Data, means±SEM, n≥3 independent experiments (500 primary objects counted per well; ≥5 wells/sample per each experiment); † p≥0.05, *p<0.05, ANOVA. […]
smiles,measurement,setting,value
"NCC(=O)N[C@@H](Cc1ccccc1)C(=O)Nc1ccc2ccccc2c1 [GPN, glycyl-L-phenylalanine 2-naphththylamide] (HELM PEPTIDE1{G.F.[c1ccc2cc(N[*:1])ccc2c1]}$$$$V2.0)",mTOR activity in different cell lines,"HeLa cells, comparable to starvation",inhibited mTOR activity
same,mTOR activity in cells null for TSC2,TSC2-deleted HeLa cells,inhibited mTOR
